Publication PMC5218480 (PLoS ONE, 2017)

Tested on: MV-4-11 cells
Test: Gene expression microarray analysis (Affymetrix PrimeView) and GSEA
Assay type: cell-based, human
Parameters: RFU PODN (11730768_x_at) / Fold change /veh PODN (11730768_x_at) / RFU LINC00158 (11744669_a_at) / Fold change /veh LINC00158 (11744669_a_at) / RFU DUSP10 (11751237_a_at) / Fold change /veh DUSP10 (11751237_a_at) / RFU ID3 (11757404_x_at) / Fold change /veh ID3 (11757404_x_at) / RFU PLEKHG5 (11737974_s_at) / Fold change /veh PLEKHG5 (11737974_s_at) / RFU LRRC4B (11730491_at) / Fold change /veh LRRC4B (11730491_at) / RFU GIMAP4 (11747438_a_at) / Fold change /veh GIMAP4 (11747438_a_at) / RFU KRT8 (11758183_x_at) / Fold change /veh KRT8 (11758183_x_at) / RFU CNN1 (11734310_a_at) / Fold change /veh CNN1 (11734310_a_at) / RFU VPS37D (11726825_at) / Fold change /veh VPS37D (11726825_at) / RFU C10orf10 (11716522_x_at) / Fold change /veh C10orf10 (11716522_x_at) / RFU KIR2DL2 /// KIR2DL4 /// KIR2DL5A /// KIR2DL5B /// KIR2DS1 /// KIR2DS2 /// KIR2DS3 /// KIR2DS4 /// KIR3DL3 /// KIR3DL3 /// KIR3DS1 (11738374_at) / Fold change /veh KIR2DL2 /// KIR2DL4 /// KIR2DL5A /// KIR2DL5B /// KIR2DS1 /// KIR2DS2 /// KIR2DS3 /// KIR2DS4 /// KIR3DL3 /// KIR3DL3 /// KIR3DS1 (11738374_at) / RFU C1QL1 (11718748_at) / Fold change /veh C1QL1 (11718748_at) / RFU TMPRSS4 (11747572_a_at) / Fold change /veh TMPRSS4 (11747572_a_at) / RFU HAMP (11756126_x_at) / Fold change /veh HAMP (11756126_x_at) / RFU RNFT2 (11725882_a_at) / Fold change /veh RNFT2 (11725882_a_at) / RFU NR4A2 (11747474_a_at) / Fold change /veh NR4A2 (11747474_a_at) / RFU ABCC12 (11746883_a_at) / Fold change /veh ABCC12 (11746883_a_at) / RFU TMEM136 (11760407_x_at) / Fold change /veh TMEM136 (11760407_x_at) / RFU CLDN22 /// WWC2 (11732394_at) / Fold change /veh CLDN22 /// WWC2 (11732394_at) / RFU HLA-DPB1 (11760878_x_at) / Fold change /veh HLA-DPB1 (11760878_x_at) / RFU SPINT1 (11716480_a_at) / Fold change /veh SPINT1 (11716480_a_at) / RFU GAP43 (11754022_s_at) / Fold change /veh GAP43 (11754022_s_at) / RFU A4GNT (11735810_at) / Fold change /veh A4GNT (11735810_at) / RFU PRB3 (11715151_x_at) / Fold change /veh PRB3 (11715151_x_at) / RFU TUBB4B (11761932_at) / Fold change /veh TUBB4B (11761932_at) / RFU CAPN14 (11732068_a_at) / Fold change /veh CAPN14 (11732068_a_at) / RFU TMCC2 (11721928_a_at) / Fold change /veh TMCC2 (11721928_a_at) / RFU IRGQ (11745062_a_at) / Fold change /veh IRGQ (11745062_a_at) / RFU FAM174B (11720279_a_at) / Fold change /veh FAM174B (11720279_a_at) / RFU TMPRSS4 (11748680_a_at) / Fold change /veh TMPRSS4 (11748680_a_at) / RFU FAM212B (11763350_a_at) / Fold change /veh FAM212B (11763350_a_at) / RFU PLEKHG5 (11743358_a_at) / Fold change /veh PLEKHG5 (11743358_a_at) / RFU ZSCAN30 (11745921_a_at) / Fold change /veh ZSCAN30 (11745921_a_at) / RFU CMKLR1 (11741424_a_at) / Fold change /veh CMKLR1 (11741424_a_at) / RFU LOC101060620 /// MAPK8IP1 (11723275_at) / Fold change /veh LOC101060620 /// MAPK8IP1 (11723275_at) / RFU SPTSSB (11747773_x_at) / Fold change /veh SPTSSB (11747773_x_at) / RFU PRSS12 (11739890_at) / Fold change /veh PRSS12 (11739890_at) / RFU BIN1 (11741810_x_at) / Fold change /veh BIN1 (11741810_x_at) / RFU WNT11 (11732464_a_at) / Fold change /veh WNT11 (11732464_a_at) / RFU C10orf10 (11716521_a_at) / Fold change /veh C10orf10 (11716521_a_at) / RFU C5orf56 (11738089_at) / Fold change /veh C5orf56 (11738089_at) / RFU CYB561 (11721691_x_at) / Fold change /veh CYB561 (11721691_x_at) / RFU ANKRD19P (11752326_a_at) / Fold change /veh ANKRD19P (11752326_a_at) / RFU OR2T12 /// OR2T33 /// OR2T8 (11738714_s_at) / Fold change /veh OR2T12 /// OR2T33 /// OR2T8 (11738714_s_at) / RFU VCAN (11748164_a_at) / Fold change /veh VCAN (11748164_a_at) / RFU JSRP1 (11732532_at) / Fold change /veh JSRP1 (11732532_at) / RFU KRTAP10-11 (11738290_x_at) / Fold change /veh KRTAP10-11 (11738290_x_at) / RFU MYO3A (11730013_a_at) / Fold change /veh MYO3A (11730013_a_at) / RFU EBF3 (11725865_a_at) / Fold change /veh EBF3 (11725865_a_at) / RFU CAMK2N1 (11719241_x_at) / Fold change /veh CAMK2N1 (11719241_x_at) / RFU C5orf56 (11738088_a_at) / Fold change /veh C5orf56 (11738088_a_at) / RFU OLFML3 (11715873_a_at) / Fold change /veh OLFML3 (11715873_a_at) / RFU LOC100653217 /// NTM (11731650_a_at) / Fold change /veh LOC100653217 /// NTM (11731650_a_at) / RFU MAPK11 (11762145_a_at) / Fold change /veh MAPK11 (11762145_a_at) / RFU FIZ1 (11724087_x_at) / Fold change /veh FIZ1 (11724087_x_at) / RFU OASL (11726364_x_at) / Fold change /veh OASL (11726364_x_at) / RFU SOX15 (11748057_x_at) / Fold change /veh SOX15 (11748057_x_at) / RFU CD79A (11719716_a_at) / Fold change /veh CD79A (11719716_a_at) / RFU HIST1H1D (11736915_at) / Fold change /veh HIST1H1D (11736915_at) / RFU CASKIN2 (11723855_a_at) / Fold change /veh CASKIN2 (11723855_a_at) / RFU LOC730098 (11760151_x_at) / Fold change /veh LOC730098 (11760151_x_at) / RFU OR4N2 (11742367_at) / Fold change /veh OR4N2 (11742367_at) / RFU PRRT2 (11749266_a_at) / Fold change /veh PRRT2 (11749266_a_at) / RFU SNX32 (11753110_a_at) / Fold change /veh SNX32 (11753110_a_at) / RFU CDHR5 (11726645_a_at) / Fold change /veh CDHR5 (11726645_a_at) / RFU RCAN1 (11760418_a_at) / Fold change /veh RCAN1 (11760418_a_at) / RFU FAM167A (11723789_a_at) / Fold change /veh FAM167A (11723789_a_at) / RFU FAM26E (11764081_at) / Fold change /veh FAM26E (11764081_at) / RFU ISYNA1 (11749810_s_at) / Fold change /veh ISYNA1 (11749810_s_at) / RFU ACY1 (11761880_at) / Fold change /veh ACY1 (11761880_at) / RFU 11764098_at / Fold change /veh 11764098_at / RFU SAMD14 (11745864_x_at) / Fold change /veh SAMD14 (11745864_x_at) / RFU NPB (11741838_a_at) / Fold change /veh NPB (11741838_a_at) / RFU TMPRSS6 (11731388_a_at) / Fold change /veh TMPRSS6 (11731388_a_at) / RFU KRTAP10-2 (11738614_at) / Fold change /veh KRTAP10-2 (11738614_at) / RFU ARHGAP8 /// PRR5-ARHGAP8 (11727945_x_at) / Fold change /veh ARHGAP8 /// PRR5-ARHGAP8 (11727945_x_at) / RFU KRTAP5-7 /// NADSYN1 (11734609_at) / Fold change /veh KRTAP5-7 /// NADSYN1 (11734609_at) / RFU RASL12 (11751679_a_at) / Fold change /veh RASL12 (11751679_a_at) / RFU CDKN2B (11736163_a_at) / Fold change /veh CDKN2B (11736163_a_at) / RFU PRF1 (11729649_at) / Fold change /veh PRF1 (11729649_at) / RFU, ZNF638 /// ZNF638-IT1 / Fold change vs veh, ZNF638 /// ZNF638-IT1 / RFU, PANK3 / Fold change vs veh, PANK3 / RFU, SH3YL1 / Fold change vs veh, SH3YL1 / RFU, ZEB2 / Fold change vs veh, ZEB2 / RFU, NRIP1 / Fold change vs veh, NRIP1 / RFU, PTTG1IP / Fold change vs veh, PTTG1IP / RFU, CAPN2 / Fold change vs veh, CAPN2 / RFU, MED14 / Fold change vs veh, MED14 / RFU, SNORA58 / Fold change vs veh, SNORA58 / RFU, C1orf63 / Fold change vs veh, C1orf63 / RFU, LRRFIP1 / Fold change vs veh, LRRFIP1 / RFU, NDUFAF7 / Fold change vs veh, NDUFAF7 / RFU, SLC12A2 / Fold change vs veh, SLC12A2 / RFU, IBTK / Fold change vs veh, IBTK / RFU, ESF1 / Fold change vs veh, ESF1 / Fold change vs veh, TMEM50B / RFU, TAOK1 / Fold change vs veh, TAOK1 / RFU, ACBD3 / Fold change vs veh, ACBD3 / RFU, TMA16 / Fold change vs veh, TMA16 / RFU, RWDD3 / Fold change vs veh, RWDD3 / RFU, BCAT1 / Fold change vs veh, BCAT1 / RFU, EDEM3 / Fold change vs veh, EDEM3 / RFU, TMEM33 / Fold change vs veh, TMEM33 / RFU, WDR75 / Fold change vs veh, WDR75 / RFU, AHCTF1 / Fold change vs veh, AHCTF1 / RFU, TFRC / Fold change vs veh, TFRC / RFU, ZDHHC17 / Fold change vs veh, ZDHHC17 / RFU, NOM1 / Fold change vs veh, NOM1 / RFU, ARL8B / Fold change vs veh, ARL8B / RFU, ZBTB11 / Fold change vs veh, ZBTB11 / RFU, TAMM41 / Fold change vs veh, TAMM41 / RFU, KIAA1704 /// LOC100996395 / Fold change vs veh, KIAA1704 /// LOC100996395 / RFU, ING1 / Fold change vs veh, ING1 / RFU, TRMT61B / Fold change vs veh, TRMT61B / RFU, FUBP3 / Fold change vs veh, FUBP3 / RFU, TP53 / Fold change vs veh, TP53 / RFU, TNKS2 / Fold change vs veh, TNKS2 / RFU, ZFP14 / Fold change vs veh, ZFP14 / RFU, ACTR2 / Fold change vs veh, ACTR2 / RFU, PPP3R1 / Fold change vs veh, PPP3R1 / RFU, PIK3R1 / Fold change vs veh, PIK3R1 / RFU, HNRNPA1 / Fold change vs veh, HNRNPA1 / RFU, RNF170 / Fold change vs veh, RNF170 / RFU, ZNF28 / Fold change vs veh, ZNF28 / RFU, RNGTT / Fold change vs veh, RNGTT / RFU, OGT / Fold change vs veh, OGT / RFU, BRD1 / Fold change vs veh, BRD1 / RFU, MARS / Fold change vs veh, MARS / RFU, ZNF655 / Fold change vs veh, ZNF655 / RFU, FAHD1 / Fold change vs veh, FAHD1 / RFU, BDP1 / Fold change vs veh, BDP1 / RFU, LRRCC1 / Fold change vs veh, LRRCC1 / RFU, ARID1A / Fold change vs veh, ARID1A / RFU, ZNF146 / Fold change vs veh, ZNF146 / RFU, ZNF330 / Fold change vs veh, ZNF330 / RFU, GPN3 / Fold change vs veh, GPN3 / RFU, C9orf123 / Fold change vs veh, C9orf123 / RFU, N4BP2L2 / Fold change vs veh, N4BP2L2 / RFU, ARFIP1 / Fold change vs veh, ARFIP1 / RFU, FAM179B / Fold change vs veh, FAM179B / RFU, BCL10 / Fold change vs veh, BCL10 / RFU, UHRF1BP1L / Fold change vs veh, UHRF1BP1L / RFU, BET1 / Fold change vs veh, BET1 / RFU, CNOT2 / Fold change vs veh, CNOT2 / RFU, ZNF268 / Fold change vs veh, ZNF268 / Fold change vs veh, ZNF507 / RFU, DGCR2 / Fold change vs veh, DGCR2 / RFU, WDSUB1 / Fold change vs veh, WDSUB1 / Fold change vs veh, HSP90B1 /// MIR3652 / RFU, ADSS / Fold change vs veh, ADSS / RFU, GK / Fold change vs veh, GK / RFU, ZNF148 / Fold change vs veh, ZNF148 / RFU, TAF9 / Fold change vs veh, TAF9 / RFU, SLC1A5 / Fold change vs veh, SLC1A5 / RFU, SLMO2 / Fold change vs veh, SLMO2 / RFU, ABCC4 / Fold change vs veh, ABCC4 / RFU, LOC101060439 /// RAP1B / Fold change vs veh, LOC101060439 /// RAP1B / RFU, RFX7 / Fold change vs veh, RFX7 / RFU, GTPBP10 / Fold change vs veh, GTPBP10 / RFU, CNEP1R1 / Fold change vs veh, CNEP1R1 / RFU, BIVM-ERCC5 /// ERCC5 / Fold change vs veh, BIVM-ERCC5 /// ERCC5 / RFU, ILF3 / Fold change vs veh, ILF3 / RFU 11762660_at / Fold change /veh 11762660_at / RFU VCAN (11757783_s_at) / Fold change /veh VCAN (11757783_s_at) / RFU DDX43 (11728927_at) / Fold change /veh DDX43 (11728927_at) / RFU KRT8 (11758188_x_at) / Fold change /veh KRT8 (11758188_x_at) / RFU NKD1 (11759106_at) / Fold change /veh NKD1 (11759106_at) / RFU SRD5A1 (11742802_a_at) / Fold change /veh SRD5A1 (11742802_a_at) / RFU TPSAB1 /// TPSB2 (11721975_s_at) / Fold change /veh TPSAB1 /// TPSB2 (11721975_s_at) / RFU GSTM3 (11746129_a_at) / Fold change /veh GSTM3 (11746129_a_at) / RFU IL23R (11737362_x_at) / Fold change /veh IL23R (11737362_x_at) / RFU TMEM51 (11727254_a_at) / Fold change /veh TMEM51 (11727254_a_at) / RFU PIWIL2 (11732686_x_at) / Fold change /veh PIWIL2 (11732686_x_at) / RFU ORM1 (11744905_x_at) / Fold change /veh ORM1 (11744905_x_at) / RFU CCDC152 (11743942_at) / Fold change /veh CCDC152 (11743942_at) / RFU ECM1 (11717891_a_at) / Fold change /veh ECM1 (11717891_a_at) / RFU IL23R (11748794_a_at) / Fold change /veh IL23R (11748794_a_at) / RFU TNFAIP8L3 (11732012_x_at) / Fold change /veh TNFAIP8L3 (11732012_x_at) / RFU MBOAT4 (11741988_at) / Fold change /veh MBOAT4 (11741988_at) / RFU 11764193_at / Fold change /veh 11764193_at / RFU TMEM53 (11763286_at) / Fold change /veh TMEM53 (11763286_at) / RFU MAGEB2 (11727129_at) / Fold change /veh MAGEB2 (11727129_at) / RFU TMEM200A (11744735_a_at) / Fold change /veh TMEM200A (11744735_a_at) / RFU CCDC152 (11751479_a_at) / Fold change /veh CCDC152 (11751479_a_at) / RFU FAM211A (11726209_a_at) / Fold change /veh FAM211A (11726209_a_at) / RFU RGS16 (11746705_a_at) / Fold change /veh RGS16 (11746705_a_at) / RFU VCAN (11755009_s_at) / Fold change /veh VCAN (11755009_s_at) / RFU RHOB (11743442_s_at) / Fold change /veh RHOB (11743442_s_at) / RFU RGS16 (11720943_a_at) / Fold change /veh RGS16 (11720943_a_at) / RFU RGS16 (11720944_at) / Fold change /veh RGS16 (11720944_at) / RFU, VPS4B / Fold change vs veh, VPS4B / RFU, CREB1 / Fold change vs veh, CREB1 / RFU, DNAJC13 / Fold change vs veh, DNAJC13 / RFU, GNAQ / Fold change vs veh, GNAQ / RFU, CDK5R1 / Fold change vs veh, CDK5R1 / RFU, ZRANB3 / Fold change vs veh, ZRANB3 / RFU, CUL4A / Fold change vs veh, CUL4A / RFU, CCNY / Fold change vs veh, CCNY / RFU, UFL1 / Fold change vs veh, UFL1 / RFU, COG3 / Fold change vs veh, COG3 / RFU, DIAPH2 / Fold change vs veh, DIAPH2 / RFU, SKA2 / Fold change vs veh, SKA2 / RFU, AFF3 / Fold change vs veh, AFF3 / RFU, LMF1 / Fold change vs veh, LMF1 / RFU, IPO11 / Fold change vs veh, IPO11 / RFU, DFFB / Fold change vs veh, DFFB / RFU, FOXP1 / Fold change vs veh, FOXP1 / RFU, CARD8 / Fold change vs veh, CARD8 / RFU, STRN3 / Fold change vs veh, STRN3 / RFU, ADK / Fold change vs veh, ADK / RFU, RASSF2 / Fold change vs veh, RASSF2 / RFU, WIPF1 / Fold change vs veh, WIPF1 / RFU, LARP1B / Fold change vs veh, LARP1B / RFU, RASA1 / Fold change vs veh, RASA1 / RFU, RB1 / Fold change vs veh, RB1 / RFU, PPFIA1 / Fold change vs veh, PPFIA1 / RFU, MAT2A / Fold change vs veh, MAT2A / RFU, CCT5 / Fold change vs veh, CCT5 / RFU, WDR92 / Fold change vs veh, WDR92 / RFU, CUX1 / Fold change vs veh, CUX1 / RFU, TTC7A / Fold change vs veh, TTC7A / RFU, TMEM135 / Fold change vs veh, TMEM135 / RFU, DEPTOR / Fold change vs veh, DEPTOR / RFU, CPM / Fold change vs veh, CPM / RFU, DNAJB6 / Fold change vs veh, DNAJB6 / RFU, CACNA2D3 / Fold change vs veh, CACNA2D3 / RFU, DTX4 / Fold change vs veh, DTX4 / RFU, TFCP2 / Fold change vs veh, TFCP2 / RFU, GMCL1 /// GMCL1P1 / Fold change vs veh, GMCL1 /// GMCL1P1 / RFU, AEBP2 / Fold change vs veh, AEBP2 / RFU, SNHG1 /// SNORD22 /// SNORD25 /// SNORD26 /// SNORD27 /// SNORD28 /// SNORD29 /// SNORD31 / Fold change vs veh, SNHG1 /// SNORD22 /// SNORD25 /// SNORD26 /// SNORD27 /// SNORD28 /// SNORD29 /// SNORD31 / Fold change (Aza/veh), C12orf56 (ProbeSet 11735607_a_at) / Fold change (ACY-1035/veh), C12orf56 (ProbeSet 11735607_a_at) / Fold change (Aza/veh), FGFR1OP (ProbeSet 11751329_s_at) / Fold change (ACY-1035/veh), FGFR1OP (ProbeSet 11751329_s_at) / Fold change (Aza/veh), VPS36 (ProbeSet 11739960_a_at) / Fold change (ACY-1035/veh), VPS36 (ProbeSet 11739960_a_at) / RFU SYPL1 (11715823_x_at) / Fold change /veh SYPL1 (11715823_x_at) / RFU IGFBP7 (11715501_s_at) / Fold change /veh IGFBP7 (11715501_s_at) / RFU REEP3 (11722064_at) / Fold change /veh REEP3 (11722064_at) / RFU IGLL1 (11728026_x_at) / Fold change /veh IGLL1 (11728026_x_at): dose or concentration left out as unconfirmed
Conditions: MV-4-11 cells, 48 hours

In the case of `Nc1ncn([C@@H]2O[C@H](CO)[C@@H](O)[C@H]2O)c(=O)n1` [azacitidine], the “Fold change /veh ANKRD19P (11752326_a_at)” value is reported as 1.10.
